According to patent publication US20230104692A1, “DMEU ENHANCER” (priority 2020, published 2023):

Tests used:
[1] = loading concentration of saturated active ingredient solution in penetration accelerator; type: physicochemical; conditions: for loading concentration in dimethyl isosorbide: dimethyl isosorbide as penetration accelerator; for loading concentration of saturated solution in DMEU: donor volume 150 μl
Protocol: The following test series with the various penetration accelerators and for the selected active ingredients were carried out in the context of a typical in vitro permeation using Franz diffusion cells. The used acceptor medium was replaced completely for a new one at predetermined replacement times, and the content of permeated active ingredient amount in these acceptor solutions was determined by means of HPLC.

[2] = in words; cited from earlier work

Question: What does the source list for `COc1cc(/C=C/C(=O)CC(=O)/C=C/c2ccc(O)c(OC)c2)ccc1O` [Curcumin]?
Answer: loading concentration in dimethyl isosorbide [1]: 1.29 mg/cm^2; loading concentration of saturated solution in DMEU [1]: 12.75 mg/cm^2; water solubility [2]: almost insoluble in water

Question: For `CCOC(=O)C1=C(C)NC(C)=C(C(=O)OC)C1c1cccc(Cl)c1Cl` (stereo not drawn) [Felodipine], which water solubility [2] is on record?
Answer: Its water solubility is “almost insoluble in water”.

Question: With `Cc1cc2c(s1)Nc1ccccc1N=C2N1CCN(C)CC1` [Olanzapine] as the molecule, how does the water solubility [2] read?
Answer: The water solubility was “almost insoluble in water”.

Question: Which “loading concentration in dimethyl isosorbide” value [1] does the source give for `CC(=O)[C@H]1CC[C@H]2[C@@H]3CCC4=CC(=O)CC[C@]4(C)[C@H]3CC[C@]12C` [Progesterone] here?
Answer: The value was 6.4 mg/cm^2.

Question: What about the “loading concentration in dipropylene glycol” value ([1]; dipropylene glycol as penetration accelerator) of the same molecule?
Answer: The value was 2.1 mg/cm^2.

Question: What about the “loading concentration of saturated solution in DMEU” value [1] of the same molecule?
Answer: Its value is 27.7 mg/cm^2.

Question: What about the water solubility [2] of the same molecule?
Answer: The water solubility was “almost insoluble in water”.
